# Values quoted from earlier work in US20070148689A1, “Compositions and methods for the prevention, treatment and detection of tuberculosis and other diseases” (priority 2000, published 2007).
# Tests used:
# CODH = CODH (Neomoorella thermoacetica, UniProt P27988)
# [1] = 10% DTPA in an oil-in-water emulsion
# [2] = chelator by intraperitoneal injection shortly after oral or intraperitoneal administration of nickel
# CO(L)-deficient CODH = CO(L)-deficient CODH (Rhodospirillum rubrum, UniProt P31896)
# Sequence of CO(L)-deficient CODH (P31896 whole entry): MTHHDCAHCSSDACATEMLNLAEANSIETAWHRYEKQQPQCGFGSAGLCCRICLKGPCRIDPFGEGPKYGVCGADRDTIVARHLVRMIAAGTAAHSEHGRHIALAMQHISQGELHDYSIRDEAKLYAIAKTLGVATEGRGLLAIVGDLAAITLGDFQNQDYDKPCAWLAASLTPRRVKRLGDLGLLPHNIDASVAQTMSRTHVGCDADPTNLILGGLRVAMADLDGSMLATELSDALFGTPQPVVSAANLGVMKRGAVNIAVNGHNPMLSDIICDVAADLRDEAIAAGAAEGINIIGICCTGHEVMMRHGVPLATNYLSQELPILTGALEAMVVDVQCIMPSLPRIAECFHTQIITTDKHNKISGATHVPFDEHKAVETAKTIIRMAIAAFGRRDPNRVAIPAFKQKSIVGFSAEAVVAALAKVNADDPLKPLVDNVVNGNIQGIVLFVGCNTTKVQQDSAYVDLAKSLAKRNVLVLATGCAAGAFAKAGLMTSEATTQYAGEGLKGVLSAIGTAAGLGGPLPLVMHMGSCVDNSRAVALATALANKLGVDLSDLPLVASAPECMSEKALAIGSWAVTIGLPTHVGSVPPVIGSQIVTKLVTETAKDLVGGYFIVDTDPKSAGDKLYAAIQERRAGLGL
# Sequence of CODH (P27989 whole entry): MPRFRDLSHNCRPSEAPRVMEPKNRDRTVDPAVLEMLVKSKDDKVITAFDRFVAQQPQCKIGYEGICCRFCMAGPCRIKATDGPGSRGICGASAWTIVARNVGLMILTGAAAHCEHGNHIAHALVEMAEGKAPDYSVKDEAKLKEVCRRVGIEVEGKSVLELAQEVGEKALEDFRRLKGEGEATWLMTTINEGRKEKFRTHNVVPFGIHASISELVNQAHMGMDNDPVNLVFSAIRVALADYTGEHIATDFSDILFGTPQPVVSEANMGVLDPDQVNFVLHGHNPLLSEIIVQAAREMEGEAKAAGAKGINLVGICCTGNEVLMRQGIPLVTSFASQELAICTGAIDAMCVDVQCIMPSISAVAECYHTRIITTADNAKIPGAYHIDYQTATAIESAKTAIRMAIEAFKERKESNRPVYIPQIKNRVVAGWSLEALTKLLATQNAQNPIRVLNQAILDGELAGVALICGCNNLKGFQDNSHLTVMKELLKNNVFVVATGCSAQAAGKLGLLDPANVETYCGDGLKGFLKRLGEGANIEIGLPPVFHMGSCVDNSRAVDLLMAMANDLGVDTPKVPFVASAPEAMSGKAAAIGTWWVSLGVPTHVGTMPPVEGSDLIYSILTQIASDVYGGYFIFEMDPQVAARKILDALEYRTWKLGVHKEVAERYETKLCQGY
# Sequence of CODH (P27988 whole entry): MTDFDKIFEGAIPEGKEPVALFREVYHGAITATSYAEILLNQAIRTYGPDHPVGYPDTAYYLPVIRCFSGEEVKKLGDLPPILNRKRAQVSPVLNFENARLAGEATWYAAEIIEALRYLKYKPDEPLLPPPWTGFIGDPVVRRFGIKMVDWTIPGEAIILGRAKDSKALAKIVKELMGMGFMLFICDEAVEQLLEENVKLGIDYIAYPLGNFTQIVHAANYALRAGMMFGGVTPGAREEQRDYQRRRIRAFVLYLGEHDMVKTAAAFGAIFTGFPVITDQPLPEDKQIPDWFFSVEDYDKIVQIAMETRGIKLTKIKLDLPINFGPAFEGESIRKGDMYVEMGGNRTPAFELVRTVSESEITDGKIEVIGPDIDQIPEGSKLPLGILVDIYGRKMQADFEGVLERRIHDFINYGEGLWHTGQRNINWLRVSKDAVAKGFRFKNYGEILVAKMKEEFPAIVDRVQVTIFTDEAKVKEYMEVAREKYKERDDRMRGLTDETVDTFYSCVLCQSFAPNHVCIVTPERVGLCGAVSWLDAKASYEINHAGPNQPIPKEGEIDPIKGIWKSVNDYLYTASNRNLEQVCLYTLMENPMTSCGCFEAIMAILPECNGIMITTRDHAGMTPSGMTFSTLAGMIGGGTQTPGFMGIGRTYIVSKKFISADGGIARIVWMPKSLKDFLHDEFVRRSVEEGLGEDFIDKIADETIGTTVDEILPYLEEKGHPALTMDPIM
smiles,measurement,setting,value
"c1cnc2c(c1)ccc1cccnc12 [1,10phenanthroline]",Removal of the Ni ion in the A-cluster of CODH,CODH,selectively removed
same,Synthesis of acetyl-coenzyme A by CODH without this Ni,CODH; after Ni removal by the chelator,can't catalyze
"O=C(O)[C@@H](S)[C@@H](S)C(=O)O [DMSA, Meso-2,3-dimercaptosuccinic acid]",Water solubility,,water-soluble
same,Toxicity,orally-administered metal chelator,non-toxic
"O=C(O)CN(CCN(CC(=O)O)CC(=O)O)CCN(CC(=O)O)CC(=O)O [DTPA, diethylenetriaminepentaacetic acid]",Preventive effect in nickel-sensitized patients,[1],preventive effect
"CCN(CC)C(=S)[S-].[Na+] [DDC, Sodium diethyldithiocarbamate]",Whole-body retention of nickel,[2],increased
CC(=NO)C(C)=NO [dimethylglyoxime],Removal of Ni from CO(L)-deficient CODH by treatment,CO(L)-deficient CODH,can be removed
"CCN(CC)C(=S)SSC(=S)N(CC)CC [TTD, Tetraethylthiuram disulphide]",Whole-body retention of nickel,[2],increased
